Assay results published in patent US10976319B2, “Cell response assay for cancer and methods of producing and using same” (Siemens Healthcare Diagnostics Inc., priority 2011, dated 2021).
Where “and” joins values, the source holds several entries; their conditions need not be identical. Equal entries are not always repeated.

Experiments:
[1] = cited from earlier work; for log Ka: Eu2+ complexed by amine poly carboxylate ions
prostate cancer cells = test: Cell response assay for prostate cancer, cells before and after camptothecin treatment; assay type: cell-based
Procedure: (§1) The procedure to test the method was to collect 4 mL normal whole blood fresh into a VACUTAINER® tube (BD 6 mL VACUTAINER® K2EDTA tube, 10.8 mg, ref 367863, Becton Dickinson, Oakville, ON) and transfer the blood into a round centrifuge tube sealed with top. Cancer cells were added by 40 μL of prostate cell cancer suspension to obtain a range of 3000 to 8000 cells/mL (8 cells/μL or 1-2 per high powered filed HRP (HRP=0.2 μL)). The blood was lysed by adding 3 mL of lysis buffer (155 mM NH4Cl, 20 mM KHCO3, 0.1 mM Na2EDTA, pH 7.4). The tubes were rolled tubes to assure that the cells were evenly distributed and that lysis was complete, and then the sample was spun down for 15 minutes at 12,000 rpm. Next, the plasma was decanted as waste supernatant, and 4.0 mL of TES buffer (50 mM N-Tris [Hydroxymethyl]-2-aminoethane-sulfonic acid: TES, pH 7.4, 2150 mM NaCl, 2 mM MgSO4 and 1 mM KCO3) and 1% albumin was added, and the tube was rocked to mix the cells. The tube was spun down again for 15 minutes at 12,000 rpm, and the supernatant was decanted as waste. A final 2.0 mL of TES wash buffer was added with rocking to mix cells.
(§2) The cells were then reacted with the reagents by taking 0.5 mL of washed blood to the centrifuge tube, and 40 μL of antibodies for PSA labeled with Cy5 and 40 μL of antibodies for urokinase like plasminogen activator (uPA) or plasminogen activator inhibitor (PAI-1) labeled with Texas Red (at working stock of 0.001 to 0.1 mg/mL) and PL2L piwi like labeled with FITC (at working stock of 0.001 to 0.1 mg/mL) were added. Next, 10 μl of a 100 μg/ml 4,6 Diamidino-2-phenylindole dihydrochloride (DAPI; a nucleic acid binding probe) was added from a solution in TES buffer. This was followed by incubation for 15 minutes at 37° C.
(§3) The sample was centrifuged down for 5 minutes @ 7500 rpm, and the supernatant was decanted off as waste (^˜450 μL). 500 μL of TES buffer was then added, and the sample was vortexed and centrifuged down at 5 minutes @ 7500 rpm. Again, the supernatant was decanted off by tapping as waste (^˜450 μL). A final 500 μL of TES wash buffer was added for final imaging, and 5 μL of the solution was placed on a slide with a long cover slip of glass. Phase contrast and fluorescence microscopy was conducted with the Leica DM5000 (Leica Microsystems, Buffalo Grove, Ill.).
The Texas Red label (ex 592, em 614 nm) was measured with a excitation band pass filter at 540-580 nm and emission band pass filter at 610-680 nm. The FITC label (ex 488, em 525 nm) was measured with an excitation band pass filter at 460-500 nm and an emission band pass filter at 512-543 nm. The DAPI probe (ex 355, em 460 nm) was measured with an excitation band pass filter at 340-380 nm and an emission band pass filter at 450-490 nm. The Cy5 label (ex 646, em 676 nm) was measured with an excitation band pass filter at 590-650 nm and an emission band pass filter at 665-735 nm.
A novel cell response assay for prostate cancer was developed by using PSA as a tissue type marker for prostate carcinoma (Biomarker A) that is always present in the disease state. […] Chemo resistance nature (Biomarker C) was determined using PL2L piwi like antigen to determine the inhibitory response to tissue invasiveness. […]

breast cancer cells = test: Cell response assay for breast cancer, cells before and after camptothecin treatment; assay type: cell-based
Procedure: as §1, with “breast” for “prostate”, “cells/4” for “cells/μL”
as §2, with “HER2/neu” for “PSA”
as §3, with “Ill.). A sample of cells was stained with the PSS-550 probe (ex 553, em 615 nm) and measured with an excitation band pass filter at 540-580 nm and an emission band pass filter at 610-680 nm to determine cell membrane flopping as a measure of cell death in addition to cell counts.” for “Ill.).”
The Texas Red label (ex 592, em 614 nm) was measured with an excitation band pass filter at 540-580 nm and an emission band pass filter at 610-680 nm. The FITC label (ex 488, em 525 nm) was measured with an excitation band pass filter at 460-500 nm and an emission band pass filter at 512-543 nm. The DAPI probe (ex 355, em 460 nm) was measured with an excitation band pass filter at 340-380 nm and an emission band pass filter at 450-490 nm. The Cy5 label (ex 646, em 676 nm) was measured with an excitation band pass filter at 590-650 nm and an emission band pass filter at 665-735 nm.
A novel cell response assay for breast cancer was developed by using HER2/neu as a tissue type marker for carcinoma breast cancer (Biomarker A) that is always present in the disease state. […]

[2] = camptothecin concentration adjusted
[3] = when the cell death % was highest

**Q.** For `O=C(O)CN(CC(=O)O)C1CCCCC1N(CC(=O)O)CC(=O)O` (centres unmarked) [DCTA], which “log Ka” value [1] is on record?
**A.** 19

**Q.** For `O=C(O)CN(CCN(CC(=O)O)CC(=O)O)CCN(CC(=O)O)CC(=O)O` [DTPA], which “log Ka” value [1] is on record?
**A.** 23

**Q.** Which “log Ka” value [1] does the source give for `O=C(O)CN(CCN(CC(=O)O)CC(=O)O)CC(=O)O` [EDTA] here?
**A.** 17

**Q.** Which “log K” value ([1]; europium chelate) does the source give for `CC(=O)CC(=O)c1ccccc1` [HBA, benzoylacetone] here?
**A.** 18.9

**Q.** For `O=C(O)CN(CCO)CCN(CC(=O)O)CC(=O)O` [HEDTA], which “log Ka” value [1] is on record?
**A.** 15

**Q.** For `O=C(O)CNCC(=O)O` [IMDA], which “log Ka” value [1] is on record?
**A.** 6

**Q.** With `O=C(CC(=O)C(F)(F)F)c1cccs1` [TTA, thenoyltriflouracetone] as the molecule, how does the “association constant (log Ka)” value ([1]; europium chelate, when converted to enolate) read?
**A.** 8.0

**Q.** With `CC[C@@]1(O)C(=O)OCc2c1cc1n(c2=O)Cc2cc3ccccc3nc2-1` [camptothecin] as the molecule, how does the cancer cell count (prostate cancer cells; as the cell death % increased) read?
**A.** decrease

**Q.** What about the phosphatidylserine flopping (prostate cancer cells; as the cell death % increased) of the same molecule?
**A.** increased

**Q.** And the “% of the cancer cells in cultures killed” value (prostate cancer cells; [2])?
**A.** > 80% and 60% and 40%

**Q.** What about the “biomarker B, namely uPA and PA1 (metastatic potential)” value (prostate cancer cells; [3]) of the same molecule?
**A.** increase

**Q.** And the “biomarker C, namely PL2L piwi like (chemo resistance)” value (prostate cancer cells; [3])?
**A.** decrease

**Q.** What about the cancer cell count (breast cancer cells; as the cell death % increased) of the same molecule?
**A.** decrease

**Q.** And the phosphatidylserine flopping (breast cancer cells; as the cell death % increased)?
**A.** increased

**Q.** What about the “% of the cancer cells in cultures killed” value (breast cancer cells; [2]) of the same molecule?
**A.** > 80% and 60% and 40%

**Q.** What about the “biomarker B, namely uPA and PA1 (metastatic potential)” value (breast cancer cells; [3]) of the same molecule?
**A.** increase

**Q.** And the “biomarker C, namely PL2L piwi like (chemo resistance)” value (breast cancer cells; [3])?
**A.** decrease
